Laboratory results as given in the supplement of paper PMC11061612.

What was measured:
Assay in all cases: combination Emax (second highest fraction inhibited in the dose matrix, 72 h); higher = more inhibition; extreme values may be limits of the assay
[1] = system: A4-Fuk (B-Lymphoblastic Leukemia)
How it was run: (§1)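 Bliss excess equals the observed combination effect minus the expected value EA + EB − EA·EB, where EA and EB are the effects of each agent alone. Combination Emax is the second-highest inhibition within the matrix. Inhibition was scaled from CellTiter-Glo 2.0 luminescence, with 0 set by vehicle wells and 1 by blank wells, after 72 hours of two-drug dosing of cells plated in 1536-well plates.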

[2] = system: ALL-SIL (T-Lymphoblastic Leukemia)
How it was run: as §1

[3] = system: CADO-ES1 (Ewing's Sarcoma)
How it was run: as §1

[4] = system: COLO-668 (Small Cell Lung Carcinoma)
How it was run: as §1

[5] = system: DU-145 (Prostate Carcinoma)
How it was run: as §1

[6] = system: HCC1937 (Breast Carcinoma)
How it was run: as §1

[7] = system: HCC2998 (Colorectal Carcinoma)
How it was run: as §1

Hey (Ovarian Carcinoma) = system: Hey (Ovarian Carcinoma)
How it was run: as §1

[8] = system: LC-1-sq (Squamous Cell Lung Carcinoma)
How it was run: as §1

[9] = system: MDA-MB-453 (Breast Carcinoma)
How it was run: as §1

[10] = system: MOG-G-UVW (Low Grade Glioma)
How it was run: as §1

[11] = system: NCI-H1092 (Small Cell Lung Carcinoma)
How it was run: as §1

[12] = system: NCI-H1993 (Lung Adenocarcinoma)
How it was run: as §1

[13] = system: NCI-H2122 (Lung Adenocarcinoma)
How it was run: as §1

[14] = system: NCI-H522 (Lung Adenocarcinoma)
How it was run: as §1

[15] = system: OACM5-1 (Esophageal Adenocarcinoma)
How it was run: as §1

[16] = system: SK-LU-1 (Lung Adenocarcinoma)
How it was run: as §1

SK-N-AS (Neuroblastoma) = system: SK-N-AS (Neuroblastoma)
How it was run: as §1

[17] = system: SKN (Other Solid Carcinomas)
How it was run: as §1

[18] = system: SW872 (Other Solid Carcinomas)
How it was run: as §1

SMILES	combination Emax [1]	combination Emax [2]	combination Emax [3]	combination Emax [4]	combination Emax [5]	combination Emax [6]	combination Emax [7]	combination Emax (Hey (Ovarian Carcinoma))	combination Emax [8]	combination Emax [9]	combination Emax [10]	combination Emax [11]	combination Emax [12]	combination Emax [13]	combination Emax [14]	combination Emax [15]	combination Emax [16]	combination Emax (SK-N-AS (Neuroblastoma))	combination Emax [17]	combination Emax [18]
C[C@@H]1COCCN1c1cc(C2([S@](C)(=N)=O)CC2)nc(-c2ccnc3[nH]ccc23)n1 [AZD6738] + O=C(c1cc(Cc2n[nH]c(=O)c3ccccc23)ccc1F)N1CCN(C(=O)C2CC2)CC1 [Olaparib] (first compound max 10 µM, 7x7, partner max 10 µM)	0.706	0.95	0.915	0.659	0.548	0.517	0.811	0.699	0.839	0.794	0.847	0.184	0.549	0.902	0.23	0.518	0.473	0.687	0.417	0.63
Cn1cnc2c(F)c(Nc3ccc(Br)cc3Cl)c(C(=O)NOCCO)cc21 [Selumetinib] + CCN(CCO)CCCOc1ccc2c(Nc3cc(CC(=O)Nc4cccc(F)c4)[nH]n3)ncnc2c1 [AZD2811] (first compound max 10 µM, 7x7, partner max 1 µM)	0.661	0.961	0.276	0.407	0.203	0.314	0.792	0.611	0.303	0.162	0.642	0.215	0.703	0.962	0.171	0.44	0.301	0.496	0.255	0.285
C=CCn1c(=O)c2cnc(Nc3ccc(N4CCN(C)CC4)cc3)nc2n1-c1cccc(C(C)(C)O)n1 [AZD1775] + O=C(c1cc(Cc2n[nH]c(=O)c3ccccc23)ccc1F)N1CCN(C(=O)C2CC2)CC1 [Olaparib] (first compound max 1 µM, partner max 10 µM)	0.875	0.899	0.636	0.566	0.255	0.497	0.448	0.552	0.901	0.411	0.864	0.382	0.604	0.834	0.363	0.353	0.436	0.78	0.412	0.336
Cc1c2c(nn1C)CSCc1cc(n(C)n1)CSc1cc(c3ccccc3c1)OCCCc1c(C(=O)O)n(C)c3c-2c(Cl)ccc13 [AZD5991] + CCN(CCO)CCCOc1ccc2c(Nc3cc(CC(=O)Nc4cccc(F)c4)[nH]n3)ncnc2c1 [AZD2811] (first compound max 1 µM, 7x7, partner max 1 µM)	1	1	0.908	0.235	0.23	0.4	0.94	0.331	0.428	0.75	0.696	0.626	0.232	0.883	0.657	0.946	0.41	0.808	0.204	0.249
CN(C)CCCOc1ccc(-c2ccc3ncc4c(c3c2)n(C2CCOCC2)c(=O)n4C)cn1 [AZD0156] + C=CCn1c(=O)c2cnc(Nc3ccc(N4CCN(C)CC4)cc3)nc2n1-c1cccc(C(C)(C)O)n1 [AZD1775] (first compound max 1 µM, partner max 1 µM)	0.816	0.742	0.39	0.405	0.239	0.475	0.633	0.495	0.91	0.192	0.744	0.301	0.586	0.793	0.225	0.414	0.384	0.77	0.336	0.267
Cc1c2c(nn1C)CSCc1cc(n(C)n1)CSc1cc(c3ccccc3c1)OCCCc1c(C(=O)O)n(C)c3c-2c(Cl)ccc13 [AZD5991] + CC1(C)CCC(CN2CCN(c3ccc(C(=O)NS(=O)(=O)c4ccc(NCC5CCOCC5)c([N+](=O)[O-])c4)c(Oc4cnc5[nH]ccc5c4)c3)CC2)=C(c2ccc(Cl)cc2)C1 [Venetoclax] (first compound max 1 µM, 7x7, partner max 1 µM)	1	1	0.911	0.686	0.149	0.316	0.893	0.133	0.322	0.346	0.257	0.989	0.325	0.823	0.443	0.917	0.258	0.871	0.177	0.312
